{"source": "paper PMC7094550", "about": "(Experimental Parasitology, 2017)", "target": "T1, Leishmania donovani HMG-CoA reductase (LdHMGR) (Leishmania donovani, UniProt A0A3S7X3U0)", "T1 sequence (A0A3S7X3U0 1-434)": "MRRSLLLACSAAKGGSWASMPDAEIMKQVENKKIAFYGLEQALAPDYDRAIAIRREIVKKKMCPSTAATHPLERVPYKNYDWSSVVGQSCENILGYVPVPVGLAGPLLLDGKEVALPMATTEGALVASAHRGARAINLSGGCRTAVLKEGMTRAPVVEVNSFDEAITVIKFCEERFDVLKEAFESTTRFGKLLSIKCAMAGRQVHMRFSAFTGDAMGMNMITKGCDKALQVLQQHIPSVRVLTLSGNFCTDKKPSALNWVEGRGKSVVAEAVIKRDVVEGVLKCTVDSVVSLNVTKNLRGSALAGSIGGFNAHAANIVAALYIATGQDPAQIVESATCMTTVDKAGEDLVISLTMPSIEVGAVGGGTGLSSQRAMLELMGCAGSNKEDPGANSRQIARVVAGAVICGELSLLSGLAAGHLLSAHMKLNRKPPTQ", "experiment": "NADPH oxidation assay at […] nm with purified recombinant enzyme", "assay_type": "biochemical", "data": [{"smiles": "CC(C)c1c(C(=O)Nc2ccccc2)c(-c2ccccc2)c(-c2ccc(F)cc2)n1CC[C@@H](O)C[C@@H](O)CC(=O)O", "note": "[Atorvastatin]", "values": [{"measurement": "IC50", "value": 300, "unit": "nM"}]}]}
